Assay results reported in patent US9969775B2, “CGRP antagonist peptides” (Ferring B.V., priority 2015, dated 2018).
Where two headings read alike, the source gives them in different places. Numbered stars: 1 amine (or outer) side, 2 acyl side, 3 side chain; on linkers, the order of the positions; unused ones are H or OH. Bridge positions count the residues as written; N and C are the ends. Square brackets hold non-standard residues; d marks the D form. Peptide text beside a SMILES is read from it. * marks the point of attachment. Phe(3-CH2NH2) = O=C([C@H](Cc1cccc(CN[*:3])c1)N[*:1])[*:2]; Phe(3-CONH2) = NC(=O)c1cccc(C[C@H](N)C(=O)O)c1; Phe(2-CONH2) = NC(=O)c1ccccc1C[C@H](N)C(=O)O; X15 = N#CN=C(N)NCCC[C@H](N[*:1])C(=O)[*:2]; X5 = O=C([C@H](Cc1ccc(CO)cc1)N[*:1])[*:2]; Triazol3yl(1,2,4-5-NH2) = Nc1nc(*)n[nH]1; Picolinoyl(5-F) = O=C(c1ccc(F)cn1)*; Orn(iPr) = CC(C)NCCC[C@H](N)C(=O)O; Orn(Me2) = CN(C)CCC[C@H](N)C(=O)O; Benzoyl(4-F) = O=C(c1ccc(F)cc1)*; Oxazole2carbonyl = O=C(c1ncco1)*; 3Pal = N[C@@H](Cc1cccnc1)C(=O)O; Picolinoyl = O=C(c1ccccn1)*; ΔPro = O=C(O)[C@@H]1C=CCN1; Orn = NCCC[C@H](N)C(=O)O; X1 = O=C(c1ncccc1F)*

Experiments:
[1] = target: T1, hAM2 receptor (CALCRL:RAMP3) (Homo sapiens, UniProt O60896+Q16602); test: AM2 receptor antagonist activity measured by cAMP assay (HTRF); assay type: cell-based; settings: for Emax: read-out: hAM2-R Efficacy Antag (%) Ave; for IC50: GeneBLAzer CALCRL:RAMP3-CRE-bla Freestyle 293F cells; for selectivity ratio CGRP/AM2: selectivity ratio for hCGRP over hAM2, calculated from the IC50 values
T1 construct: expressed in transfected cells; host or cells: GeneBLAzer CALCRL:RAMP3-CRE-bla Freestyle 293F

[2] = target: T2, hCGRP receptor (CALCRL:RAMP1) (Homo sapiens, UniProt O60894+Q16602); test: CGRP receptor antagonist activity measured by cAMP assay (HTRF); assay type: cell-based; settings: for Emax: read-out: hCGRP-R Efficacy Antag (%) Ave; for IC50: GeneBLAzer CALCRL:RAMP1-CRE-bla Freestyle 293F cells, 30 minutes
T2 construct: host or cells: GeneBLAzer CALCRL:RAMP1-CRE-bla Freestyle 293F

[3] = % MPE: percent of the maximal possible effect, agonist human adrenomedullin
[4] = agonist human adrenomedullin, read-out: hAM2-R IC50 Ave
[5] = % MPE: percent of the maximal possible effect, agonist human α-CGRP
[6] = agonist human α-CGRP, read-out: hCGRP-R IC50 Ave

T2 sequence (Q16602 23-461): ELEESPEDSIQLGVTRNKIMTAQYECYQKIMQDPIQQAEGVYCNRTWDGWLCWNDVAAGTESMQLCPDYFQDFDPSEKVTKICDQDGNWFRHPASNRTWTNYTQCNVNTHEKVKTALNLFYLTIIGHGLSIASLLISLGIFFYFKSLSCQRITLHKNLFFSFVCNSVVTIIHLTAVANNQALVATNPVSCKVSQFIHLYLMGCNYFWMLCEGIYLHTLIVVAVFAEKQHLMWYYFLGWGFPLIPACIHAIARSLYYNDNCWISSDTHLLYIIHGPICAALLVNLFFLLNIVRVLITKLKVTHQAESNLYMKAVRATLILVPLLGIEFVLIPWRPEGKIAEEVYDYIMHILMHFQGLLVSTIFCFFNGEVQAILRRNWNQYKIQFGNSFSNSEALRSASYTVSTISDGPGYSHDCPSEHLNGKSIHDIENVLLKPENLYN
T2 sequence (O60894 27-148): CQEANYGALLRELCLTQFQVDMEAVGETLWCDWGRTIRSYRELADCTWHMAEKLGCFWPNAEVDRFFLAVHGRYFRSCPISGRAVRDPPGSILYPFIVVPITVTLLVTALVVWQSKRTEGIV
T1 sequence (Q16602 23-461): as the sequence (Q16602 23-461) above
T1 sequence (O60896 24-148): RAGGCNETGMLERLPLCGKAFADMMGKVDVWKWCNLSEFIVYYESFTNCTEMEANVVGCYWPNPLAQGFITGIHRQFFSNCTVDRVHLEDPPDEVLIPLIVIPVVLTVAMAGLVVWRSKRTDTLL

Compound: CC(C)[C@@H]1NC(=O)[C@H](CC(=O)O)NC(=O)[C@H](CCCNC(=N)N)NC(=O)[C@@H](NC(=O)[C@H](Cc2ccc(O)cc2)NC(=O)[C@H](NC(=O)c2ccc(F)cc2)C(C)C)CSSC[C@@H](C(=O)N[C@@H](Cc2cccnc2)C(N)=O)NC(=O)[C@H](Cc2ccccc2)NC(=O)[C@@H]2C=CCN2C(=O)CNC1=O [Compound 4, Bz(4-F)-D-Val-Tyr-c(Cys-Arg-Asp-Val-Gly-Dhp-Phe-Cys)-3Pal-NH2] ({Benzoyl(4-F)}-[dV]YCRDVG[ΔPro]FC[3Pal]-NH2; disulfide 3-10)
- Emax [1, 3]: 113%
- IC50 [1, 4]: 29 nM
- selectivity ratio CGRP/AM2 [1]: 172
- Emax [2, 5]: 100%
- IC50 [2, 6]: 0.17 nM

Compound: CC(C)[C@@H]1NC(=O)[C@H](CC(=O)O)NC(=O)[C@H](CCCNC(=N)N)NC(=O)[C@@H](NC(=O)[C@H](Cc2ccccc2C(N)=O)NC(=O)[C@H](NC(=O)c2ncccc2F)C(C)C)CSSC[C@@H](C(=O)N[C@@H](Cc2cccnc2)C(N)=O)NC(=O)[C@H](Cc2cccc(CN)c2)NC(=O)[C@@H]2C=CCN2C(=O)CNC1=O [Compound 32, Picolinoyl(3-F)-D-Val-Phe(2-Cbm)-c(Cys-Arg-Asp-Val-Gly-Dhp-Phe(3-CH2NH2)-Cys)-3Pal-NH2] (X1-[dV][Phe(2-CONH2)]CRDVG[ΔPro][Phe(3-CH2NH2)]C[3Pal]-NH2; disulfide 3-10)
- Emax [1, 3]: 99%
- IC50 [1, 4]: 61 nM
- selectivity ratio CGRP/AM2 [1]: 498
- Emax [2, 5]: 100%
- IC50 [2, 6]: 0.12 nM

Compound: CC(C)NCCC[C@@H]1NC(=O)[C@@H](NC(=O)[C@H](Cc2ccccc2C(N)=O)NC(=O)[C@H](NC(=O)c2ncco2)C(C)C)CSSC[C@@H](C(=O)N[C@@H](Cc2cccnc2)C(N)=O)NC(=O)[C@H](Cc2cccc(CN)c2)NC(=O)[C@@H]2C=CCN2C(=O)CNC(=O)[C@H](C(C)C)NC(=O)[C@H](CC(=O)O)NC1=O [Compound 43, Oxazole-2-carbonyl-D-Val-Phe(2-Cbm)-c(Cys-Orn(iPr)-Asp-Val-Gly-Dhp-Phe(3-CH2NH2)-Cys)-3Pal-NH2] (Oxazole2carbonyl-[dV][Phe(2-CONH2)]C[Orn(iPr)]DVG[ΔPro][Phe(3-CH2NH2)]C[3Pal]-NH2; disulfide 3-10)
- Emax [1, 3]: 101%
- IC50 [1, 4]: 180 nM
- selectivity ratio CGRP/AM2 [1]: 4693
- Emax [2, 5]: 100%
- IC50 [2, 6]: 0.04 nM

Compound: CC(C)NCCC[C@@H]1NC(=O)[C@@H](NC(=O)[C@H](Cc2ccccc2C(N)=O)NC(=O)[C@H](NC(=O)c2ccc(F)cn2)C(C)C)CSSC[C@@H](C(=O)N[C@@H](Cc2cccnc2)C(N)=O)NC(=O)[C@H](Cc2ccc(CO)cc2)NC(=O)[C@@H]2C=CCN2C(=O)CNC(=O)[C@H](C(C)C)NC(=O)[C@H](CC(=O)O)NC1=O [Compound 63, Picolinoyl(5-F)-D-Val-Phe(2-Cbm)-c(Cys-Orn(iPr)-Asp-Val-Gly-Dhp-Phe(4-CH2OH)-Cys)-3Pal-NH2] ({Picolinoyl(5-F)}-[dV][Phe(2-CONH2)]C[Orn(iPr)]DVG[ΔPro][X5]C[3Pal]-NH2; disulfide 3-10)
- Emax [1, 3]: 98%
- IC50 [1, 4]: 85 nM
- selectivity ratio CGRP/AM2 [1]: 848
- Emax [2, 5]: 101%
- IC50 [2, 6]: 0.1 nM

Compound: CC(C)[C@@H]1NC(=O)[C@H](CC(=O)O)NC(=O)[C@H](CCCNC(N)=NC#N)NC(=O)[C@@H](NC(=O)[C@H](Cc2ccc(O)cc2)NC(=O)[C@H](NC(=O)c2ccccn2)C(C)C)CSSC[C@@H](C(=O)N[C@@H](Cc2cccnc2)C(N)=O)NC(=O)[C@H](Cc2ccccc2)NC(=O)[C@@H]2CCCN2C(=O)CNC1=O [Compound 26, Picolinoyl-D-Val-Tyr-c(Cys-Arg(CN)-Asp-Val-Gly-Pro-Phe-Cys)-3Pal-NH2] (Picolinoyl-[dV]YC[X15]DVGPFC[3Pal]-NH2; disulfide 3-10)
- Emax [1, 3]: 100%
- Emax [2, 5]: 100%

Compound: CC(C)NCCC[C@@H]1NC(=O)[C@@H](NC(=O)[C@H](Cc2ccc(O)cc2)NC(=O)[C@H](NC(=O)c2ncco2)C(C)C)CSSC[C@@H](C(=O)N[C@@H](Cc2cccnc2)C(N)=O)NC(=O)[C@H](Cc2ccc(CO)cc2)NC(=O)[C@@H]2C=CCN2C(=O)CNC(=O)[C@H](C(C)C)NC(=O)[C@H](CC(=O)O)NC1=O [Compound 70, Oxazole-2-carbonyl-D-Val-Tyr-c(Cys-Orn(iPr)-Asp-Val-Gly-Dhp-Phe(4-CH2OH)-Cys)-3Pal-NH2] (Oxazole2carbonyl-[dV]YC[Orn(iPr)]DVG[ΔPro][X5]C[3Pal]-NH2; disulfide 3-10)
- Emax [1, 3]: 100%
- IC50 [1, 4]: 107 nM
- selectivity ratio CGRP/AM2 [1]: 727
- Emax [2, 5]: 100%
- IC50 [2, 6]: 0.15 nM

Compound: CC(C)NCCC[C@@H]1NC(=O)[C@@H](NC(=O)[C@H](Cc2ccc(O)cc2)NC(=O)[C@H](NC(=O)c2ccc(F)cn2)C(C)C)CSSC[C@@H](C(=O)N[C@@H](Cc2cccnc2)C(N)=O)NC(=O)[C@H](Cc2cccc(C(N)=O)c2)NC(=O)[C@@H]2C=CCN2C(=O)CNC(=O)[C@H](C(C)C)NC(=O)[C@H](CC(=O)O)NC1=O [Compound 68, Picolinoyl(5-F)-D-Val-Tyr-c(Cys-Orn(iPr)-Asp-Val-Gly-Dhp-Phe(3-Cbm)-Cys)-3Pal-NH2] ({Picolinoyl(5-F)}-[dV]YC[Orn(iPr)]DVG[ΔPro][Phe(3-CONH2)]C[3Pal]-NH2; disulfide 3-10)
- Emax [1, 3]: 100%
- IC50 [1, 4]: 18 nM
- selectivity ratio CGRP/AM2 [1]: 300
- Emax [2, 5]: 101%
- IC50 [2, 6]: 0.06 nM

Compound: CC(C)[C@@H]1NC(=O)[C@H](CC(=O)O)NC(=O)[C@H](CCCN)NC(=O)[C@@H](NC(=O)[C@H](Cc2ccc(O)cc2)NC(=O)[C@H](NC(=O)c2ccccn2)C(C)C)CSSC[C@@H](C(=O)N[C@@H](Cc2cccnc2)C(N)=O)NC(=O)[C@H](Cc2ccc(CO)cc2)NC(=O)[C@@H]2CCCN2C(=O)CNC1=O [Compound 25, Picolinoyl-D-Val-Tyr-c(Cys-Orn-Asp-Val-Gly-Pro-Phe(4-CH2OH)-Cys)-3Pal-NH2] (Picolinoyl-[dV]YC[Orn]DVGP[X5]C[3Pal]-NH2; disulfide 3-10)
- Emax [1, 3]: 100%
- IC50 [1, 4]: 78 nM
- selectivity ratio CGRP/AM2 [1]: 1071
- Emax [2, 5]: 100%
- IC50 [2, 6]: 0.07 nM

Compound: CC(C)NCCC[C@@H]1NC(=O)[C@@H](NC(=O)[C@H](Cc2ccc(O)cc2)NC(=O)[C@H](NC(=O)c2ncco2)C(C)C)CSSC[C@@H](C(=O)N[C@@H](Cc2cccnc2)C(N)=O)NC(=O)[C@H](Cc2cccc(C(N)=O)c2)NC(=O)[C@@H]2C=CCN2C(=O)CNC(=O)[C@H](C(C)C)NC(=O)[C@H](CC(=O)O)NC1=O [Compound 67, Oxazole-2-carbonyl-D-Val-Tyr-c(Cys-Orn(iPr)-Asp-Val-Gly-Dhp-Phe(3-Cbm)-Cys)-3Pal-NH2] (Oxazole2carbonyl-[dV]YC[Orn(iPr)]DVG[ΔPro][Phe(3-CONH2)]C[3Pal]-NH2; disulfide 3-10)
- Emax [1, 3]: 99%
- IC50 [1, 4]: 103 nM
- selectivity ratio CGRP/AM2 [1]: 1094
- Emax [2, 5]: 101%
- IC50 [2, 6]: 0.09 nM

Compound: CC(C)NCCC[C@@H]1NC(=O)[C@@H](NC(=O)[C@H](Cc2ccccc2C(N)=O)NC(=O)[C@H](NC(=O)c2ncco2)C(C)C)CSSC[C@@H](C(=O)N[C@@H](Cc2cccnc2)C(N)=O)NC(=O)[C@H](Cc2cccnc2)NC(=O)[C@@H]2CCCN2C(=O)CNC(=O)[C@H](C(C)C)NC(=O)[C@H](CC(=O)O)NC1=O [Compound 40, Oxazole-2-carbonyl-D-Val-Phe(2-Cbm)-c(Cys-Orn(iPr)-Asp-Val-Gly-Pro-3Pal-Cys)-3Pal-NH2] (Oxazole2carbonyl-[dV][Phe(2-CONH2)]C[Orn(iPr)]DVGP[3Pal]C[3Pal]-NH2; disulfide 3-10)
- IC50 ([1]; hAM2-R IC50 Ave, agonist human adrenomedullin): 980 nM
- Emax [1]: 98%
- selectivity ratio CGRP/AM2 [1]: 10884
- IC50 ([2]; hCGRP-R IC50 Ave, agonist human α-CGRP): 0.09 nM
- Emax [2]: 100%

Compound: CC(C)[C@@H]1NC(=O)[C@H](CC(=O)O)NC(=O)[C@H](CCCNc2nc(N)n[nH]2)NC(=O)[C@@H](NC(=O)[C@H](Cc2ccc(O)cc2)NC(=O)[C@H](NC(=O)c2ccccn2)C(C)C)CSSC[C@@H](C(=O)N[C@@H](Cc2cccnc2)C(N)=O)NC(=O)[C@H](Cc2ccccc2)NC(=O)[C@@H]2CCCN2C(=O)CNC1=O [Compound 27, Picolinoyl-D-Val-Tyr-c(Cys-Orn(Atz)-Asp-Val-Gly-Pro-Phe-Cys)-3Pal-NH2] (Picolinoyl-[dV]YC[Orn](Triazol3yl(1,2,4-5-NH2))DVGPFC[3Pal]-NH2; disulfide 3-10)
- Emax [1, 3]: 98%
- IC50 [1, 4]: 119 nM
- selectivity ratio CGRP/AM2 [1]: 765
- Emax [2, 5]: 100%
- IC50 [2, 6]: 0.15 nM

Compound: CC(C)[C@@H]1NC(=O)[C@H](CC(=O)O)NC(=O)[C@H](CCCN(C)C)NC(=O)[C@@H](NC(=O)[C@H](Cc2ccc(O)cc2)NC(=O)[C@H](NC(=O)c2ncccc2F)C(C)C)CSSC[C@@H](C(=O)N[C@@H](Cc2cccnc2)C(N)=O)NC(=O)[C@H](Cc2ccccc2)NC(=O)[C@@H]2CCCN2C(=O)CNC1=O [Compound 46, Picolinoyl(3-F)-D-Val-Tyr-c(Cys-Orn(Me2)-Asp-Val-Gly-Pro-Phe-Cys)-3Pal-NH2] (X1-[dV]YC[Orn(Me2)]DVGPFC[3Pal]-NH2; disulfide 3-10)
- Emax [1, 3]: 99%
- IC50 [1, 4]: 184 nM
- selectivity ratio CGRP/AM2 [1]: 1189
- Emax [2, 5]: 100%
- IC50 [2, 6]: 0.15 nM

Compound: CC(C)[C@@H]1NC(=O)[C@H](CC(=O)O)NC(=O)[C@H](CCCNC(=N)N)NC(=O)[C@@H](NC(=O)[C@H](Cc2ccccc2C(N)=O)NC(=O)[C@H](NC(=O)c2ccc(F)cc2)C(C)C)CSSC[C@@H](C(=O)N[C@@H](Cc2cccnc2)C(N)=O)NC(=O)[C@H](Cc2ccccc2)NC(=O)[C@@H]2CCCN2C(=O)CNC1=O [Compound 15] ({Benzoyl(4-F)}-[dV][Phe(2-CONH2)]CRDVGPFC[3Pal]-NH2; disulfide 3-10)
- Emax [1, 3]: 99%
- IC50 [1, 4]: 58 nM
- selectivity ratio CGRP/AM2 [1]: 610
- Emax [2, 5]: 100%
- IC50 [2, 6]: 0.1 nM
